Laboratory results published in US20100291236A1, “OSMIUM COMPOUNDS” (THE UNIVERSITY OF WARWICK, priority 2006, published 2010).
Several values for one entry are separate records, joined by “and”; a condition that tells them apart may be missing. Identical values can stand only once. Entries after “also recorded” stand apart in the source; their conditions may differ. Like-named read-outs stand apart in the source and are kept apart here.

Columns and labels:
[1] = test system: A549 human lung and A2780 human ovarian cancer cell lines; assay: Cytotoxicity in A549 and A2780 cell lines, result not split by cell line; assay type: cell-based
Method: (§1) Experimental: Cytotoxicity Towards A2780 and A549 Human Cancer Cells. After plating, human ovarian A2780 cancer cells were treated with Os^II complexes on day 3, and human lung A549 cancer cells on day 2, at concentrations ranging from 2 μM to 50 μM. Solutions of the Os^II complexes were made up in 0.125% DMSO to assist dissolution. Cells were exposed to the complexes for 24 h, washed, supplied with fresh medium, allowed to grow for three doubling times (72 h), and then the protein content measured (proportional to cell survival) using the sulforhodamine B (SRB) assay.
(§2) Cancer Cell Cytotoxicity. After plating, human ovarian A2780 cancer cells were treated with OsII complexes on day 3, and human lung A549 cancer cells on day 2, at concentrations ranging from 0.1 μM to 100 μM. Solutions of the OsII complexes were made up in 0.125% DMSO to assist dissolution. Cells were exposed to the complexes for 24 h, washed, supplied with fresh medium, allowed to grow for three doubling times (72 h), and then the protein content measured (proportional to cell survival) using the sulforhodamine B (SRB) assay.10

[2] = Hydrolysis (aquation) kinetics followed by 1H NMR; assay type: physicochemical; conditions: for Hydrolysis k/h^−1: 5% MeOD-d4/95% D2O, pH* 2
Method: Hydrolysis. […] The rate of hydrolysis was determined by fitting plots of concentrations (determined by ^1H NMR peak integrals) versus time to a pseudo first-order equation using ORIGIN version 5.0 (Microcal Software Ltd.).

[3] = test system: A2780cisR (with acquired cisplatin resistance); conditions: MTT, 72 hours exposure, 0 to 128 μM
Method: All experiments were made in quadruplicate.
All experiments were performed in quadruplicate.

[4] = test system: human ovarian A2780 cancer cells; assay: Cytotoxicity towards A2780 cells, sulforhodamine B (SRB) assay; assay type: cell-based
Method: as §1, §2

[5] = test system: human lung A549 cancer cells; assay: Cytotoxicity towards A549 cells, sulforhodamine B (SRB) assay; assay type: cell-based
Method: as §1, §2

[6] = Acidity (pKa / pKa*) of coordinated water, 1H NMR pH* titration
Description: pKa* calculations. […] The chemical shifts of the arene ring protons were plotted against pH*. The pH* titration curves were fitted to the Henderson-Hasselbalch equation, with the assumption that the observed chemical shifts are weighted averages according to the populations of the protonated and deprotonated species.

[7] = Stability against formation of hydroxo-bridged dimers; assay type: physicochemical; conditions: for Formation of inert hydroxo-bridged dimers: micromolar concentrations; for Stability with no evidence of dimer formation: 50 μM, even after incubation at 310 K (24 h)
Description: Complexes containing O,O-chelated ligands are deactivated at micromolar concentrations by loss of the chelate and formation of inert hydroxo-bridged dimers.

9-ethyl adenine (9EtA) = assay: Reaction with nucleobase model 9-ethyl adenine, 1H NMR; assay type: binding; conditions: 1 mM complex, 1 mol equivalent 9EtA, D2O
Method: (§3) Since DNA is believed to be the main target for metal anticancer drugs, nucleobase binding reactions of compounds 3-6, with nucleobase models, 9-ethyl guanine (9EtG) and 9-ethyl adenine (9EtA), were investigated.
(§4) Solutions of 3-6 (1 mM) (present as an equilibrium between 3-6 and their respective aqua adducts as the major species) with 1 mol equivalent of 9EtG (Table 14) or 9EtA (Table 15) in D2O were prepared and ^1H NMR spectra were taken at different time intervals.
(§5) Interactions with Nucleobases. The reaction of compounds 8-12 with nucleobases typically involved addition of a solution containing 1 mol equiv of nucleobase in D2O, to an equilibrium solution of compounds 8-12 in D2O (>90% aqua). The pH* value of the sample was adjusted if necessary so as to remain close to 7.4 (physiological). ^1H NMR spectra of these solutions were recorded at 298 K after various time intervals.

9-ethyl guanine (9EtG) = assay: Reaction with nucleobase model 9-ethyl guanine, 1H NMR; assay type: binding; conditions: 1 mM complex, 1 mol equivalent 9EtG, D2O
Method: as §3, §4, §5

[8] = Effect of chloride concentration on aqua adduct formation; assay type: physicochemical; conditions: for % aqua adduct: 1 mM complex in D2O, t = 26 h
[9] = as above; assay type: physicochemical; conditions: for % aqua adduct: 1 mM complex in D2O, t = 10 min; for % of aqua complex formed: 1 mM complex
Description: The effects of chloride levels on the distribution of AFAP42 (“prodrug”) and its aqua analogue (“active species”) were investigated. […] Results are summarised in table 6, showing how the hydrolysis of AFAP42 is suppressed in solutions with chloride concentrations similar to those found in blood plasma. At chloride concentrations typical of the cells cytoplasm, complex AFAP42 hydrolyses to some extent and at chloride concentrations typical of the nucleus (where the proposed target, DNA, can be found), the complex is present predominantly as the “active species” the aqua complex.
The effects of chloride concentrations typical of blood plasma (100 mM), cell cytoplasm (22.7 mM) and cell nucleus (4 mM) on the aqueous chemistry of 3 and 6 were investigated. ^1H NMR spectra of 3 or 6 (1 mM) were recorded within 10 min of sample preparation and after incubation at 310 K for 24 h.

[10] = Stability in isotonic saline solutions; assay type: physicochemical; conditions: after 16 days of storage in the dark
Method: Stability tests on AFAP42, 64, 62, 05, 51 and 65 in isotonic saline solutions were also performed.

[11] = extreme conditions of heating, sonicating, exposure to air and extreme sunlight
Method: Samples are prepared for testing by initially dissolving in 5% DMSO and subsequently diluting down.

[12] = test system: human ovarian A2780 cancer cells; conditions: Peacock et al, J. Am. Chem. Soc. 2006; said to be erroneous; cited from earlier work
[13] = Table 7, 24 h exposure, 72 h growth, 2-50 μM, read-out: IC50/μM A2780
[14] = Table 7, 24 h exposure, 72 h growth, 2-50 μM, read-out: IC50/μM A549

Compound: Cc1ccc(C(C)C)cc1.Cc1ccc2c(c1)[S][Os-]([Cl])[S]2.[Na+] (centres unmarked) [AFAP40, [(η^6-p-cym)Os(S2C7H6)Cl]Na]
- Aqueous solubility (Aqueous solubility): very poor
- Cytotoxicity, A549 and A2780 [1]: showed activity; also recorded: Shows cytotoxicity

Compound: [Cl][Os-]1[NH2+]CC[NH2+]1.c1ccc(-c2ccccc2)cc1 [[(η^6-bip)Os(en)Cl]^+]
- Hydrolysis slower than the equivalent ruthenium complex ([2]; osmium complex versus equivalent ruthenium complex): 40 times
- Activity in cisplatin resistant A2780cisR compared with A2780 [3]: even greater activity in the cisplatin resistant cell line

Compound: CC(C)(N)C(=O)[O][Os][Cl].Cc1ccc(C(C)C)cc1 [AFAP60]
- IC50 [4, 13]: > 100 µM
- IC50 [5, 14]: > 100 µM
- pKa of water coordinated on hydrolysis (aqua adduct of complex) [6]: 7.08
- Formation of inert hydroxo-bridged dimers [7]: form in small amounts

Compound: Cc1ccnc(C(=O)[O][Os][Cl])c1.c1ccc(-c2ccccc2)cc1 [Compound 6, [(η^6-bip)Os(4-Me-pico)Cl]]
- % 9EtA nucleobase adduct (9-ethyl adenine (9EtA); t = 10): 0%
- % 9EtA nucleobase adduct (9-ethyl adenine (9EtA); t = 24 h): 60%
- % 9EtA nucleobase adduct (9-ethyl adenine (9EtA); t = 72 h): 60%
- Aquation k/h^−1 ([2]; 278 K): 0.17 h⁻¹
- Aquation k/h^−1 ([2]; 285 K): 0.44 h⁻¹
- Hydrolysis k/h^−1 ([2]; 288 K): 0.710 ± 0.012 h⁻¹ and 0.71 h⁻¹
- Hydrolysis k/h^−1 ([2]; 298 K): 2.32 ± 0.08 h⁻¹ and 2.32 h⁻¹
- Ea of aquation ([2]; from rates at 278-298 K): 21.65 kcal/mol
- ΔH^‡ of aquation ([2]; from rates at 278-298 K): 21 kcal/mol
- ΔS^‡ of aquation ([2]; from rates at 278-298 K): −55.56 J K^−1 mol^−1
- % 9EtG nucleobase adduct (9-ethyl guanine (9EtG); t = 10): 0%
- % 9EtG nucleobase adduct (9-ethyl guanine (9EtG); t = 24 h): 80%
- % 9EtG nucleobase adduct (9-ethyl guanine (9EtG); t = 72 h): 85%
- % aqua adduct ([8]; 4 mM NaCl): 81%
- % aqua adduct ([8]; 22.7 mM NaCl): 53%
- % aqua adduct ([8]; 100 mM NaCl): 20%
- Activity in A2780 cancer cell line [4]: toxic
- IC50 ([4]; Table 8, compounds 1-6, read-out: A2780 IC50): 4.4 µM
- IC50 ([5]; Table 8, compounds 1-6, read-out: A549 IC50): 10 to 50 µM
- % aqua adduct ([9]; 4 mM NaCl): 82%
- % aqua adduct ([9]; 22.7 mM NaCl): 53%
- % aqua adduct ([9]; 100 mM NaCl): 10%
- pKa* of the aqua adduct [6]: 6.42

Compound: [(η^6-p-cym)Os(quin)Cl] [AFAP62]
- Stability of isotonic saline solutions [10]: stable
- IC50 [4, 13]: 15 µM and 15.2 µM
- IC50 [5, 14]: 60 µM
- pKa of water coordinated on hydrolysis (aqua adduct of complex) [6]: 7.52
- Stability with no evidence of dimer formation [7]: 100%

Compound: F[B-](F)(F)F.[Cl][Os-]1[NH2+]CC[NH2+]1.c1ccc(-c2ccccc2)cc1 [AFAP51, [(η^6-bip)Os(en)Cl]BF4]
- Stability of isotonic saline solutions [10]: stable
- Cytotoxicity, A549 and A2780 [1]: does show cytotoxicity
- IC50 [4, 13]: 7.6 µM
- IC50 [5, 14]: 10 µM
- Stability of solutions in DMSO-d6 [11]: can decompose
- pKa of water coordinated on hydrolysis (aqua adduct of complex) [6]: 6.34
- Activity toward A2780 cells as previously reported [12]: inactive

Compound: F[P-](F)(F)(F)(F)F.NCCN.[Cl][Os+].c1ccc(-c2ccccc2)cc1 [AFAP05, [(η^6-bip)Os(en)Cl]PF6]
- Stability of isotonic saline solutions [10]: stable
- IC50 [4, 13]: 7 µM
- IC50 [5, 14]: 10 µM

Compound: Cc1ccc(C(C)C)cc1.NCCC(=O)[O][Os][Cl] [AFAP49]
- IC50 [4, 13]: > 100 µM
- IC50 [5, 14]: > 100 µM
- pKa of water coordinated on hydrolysis (aqua adduct of complex) [6]: 7.43
- Formation of inert hydroxo-bridged dimers [7]: form in small amounts

Compound: Cc1ccc(C(C)C)cc1.NCC(=O)[O][Os][Cl] [AFAP43]
- IC50 [4, 13]: > 100 µM
- IC50 [5, 14]: > 100 µM
- pKa of water coordinated on hydrolysis (aqua adduct of complex) [6]: 7.17
- Formation of inert hydroxo-bridged dimers [7]: form in small amounts

Compound: CC(N)C(=O)[O][Os][Cl].Cc1ccc(C(C)C)cc1 [AFAP44]
- IC50 [4, 13]: > 100 µM
- IC50 [5, 14]: > 100 µM
- pKa of water coordinated on hydrolysis (aqua adduct of complex) [6]: 7.05
- Formation of inert hydroxo-bridged dimers [7]: form in small amounts

Compound: NCCN.[Cl][Os+].c1ccc(-c2ccccc2)cc1.c1ccc([B-](c2ccccc2)(c2ccccc2)c2ccccc2)cc1 [(III)]
- Activity toward A2780 cells as previously reported [12]: inactive

Compound: [(η^6-bip)Os(pico)Cl] [AFAP64]
- Stability of isotonic saline solutions [10]: stable
- IC50 [4, 13]: 4.2 µM
- IC50 [5, 14]: 8 µM
- pKa of water coordinated on hydrolysis (aqua adduct of complex) [6]: 6.30

Compound: [(η^6-p-cym)Os(pico)Cl] [AFAP42]
- Stability of isotonic saline solutions [10]: stable
- % of aqua complex formed ([8]; 4 mM [Cl], 50 μM complex, T = 0): 73.5% Aqua
- % of aqua complex formed ([8]; 4 mM [Cl], 50 μM complex, T = 24 h (310 K)): 72.1% Aqua
- % of aqua complex formed ([8]; 22.7 mM [Cl], 50 μM complex, T = 0): 44.8% Aqua
- % of aqua complex formed ([8]; 22.7 mM [Cl], 50 μM complex, T = 24 h (310 K)): 45.2% Aqua
- % of aqua complex formed ([8]; 22.7 mM [Cl], 1 mM complex, T = 24 h (310 K)): 30.5% Aqua
- % of aqua complex formed ([8]; 100 mM [Cl], 50 μM complex, T = 0): 0% Aqua
- % of aqua complex formed ([8]; 100 mM [Cl], 50 μM complex, T = 24 h (310 K)): 0% Aqua
- IC50 [4, 13]: 4.5 µM
- IC50 [5, 14]: 17 µM
- % of aqua complex formed ([9]; 4 mM [Cl], T = 0): 56.1% Aqua
- % of aqua complex formed ([9]; 4 mM [Cl], T = 24 h (310 K)): 65.5% Aqua
- % of aqua complex formed ([9]; 22.7 mM [Cl], T = 0): 29.8% Aqua
- % of aqua complex formed ([9]; 100 mM [Cl], T = 0): 12% Aqua
- % of aqua complex formed ([9]; 100 mM [Cl], T = 24 h (310 K)): 12.9% Aqua
- pKa of water coordinated on hydrolysis (aqua adduct of complex) [6]: 6.62
- Stability with no evidence of dimer formation [7]: 100%
